The values below come from PubChem BioAssay AID179 (DTP/NCI, 2004).

The term EC50 denotes the concentration that produces a half-maximal response. In general, IC50 refers to the point on the concentration scale where inhibition reaches its midpoint. A higher IC50 goes with weaker potency.

Several values for one entry are separate records, joined by “and”; a condition that tells them apart may be missing. Equal entries are not always repeated. Activity calls are given as the source filed them.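 How the source made its calls: active means compounds giving half or more protection of infected cells from virus-caused growth loss, again on retest; inactive means the rest.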 Where a SMILES comes first, the peptide text is derived from it.

The assay has as its system CEM cells HIV-1 protection, formazan growth assay. As to the kind of experiment: NCI AIDS Antiviral Assay. The conditions noted are these: for IC50: measured here: growth of uninfected CEM cells. As to the method: The ability of compounds to protect human CEM cells from HIV-1 infection is measured as a screen for new compounds capable of inhibiting the HIV virus. Five concentrations of drug were tested on uninfected and infected cells and cell growth was measured using a soluble formazan assay. […] Compounds that provided at least 50% protection were retested. Compounds that provided at least 50% protection on retest were listed as moderately active. Compounds that reproducibly provided 100% protection were listed as confirmed active. […] Note that the inability to provide protection could be due to toxicity.

As for `Nc1nc(N)c(CCc2ccccc2)c(N)n1`, the result was inactive.
For `CCOC(=O)C(=CNC(=S)c1ccncc1)C(=O)OCC`, the EC50 is > 200 µM and the 50% inhibitory concentration (IC50) was > 200 µM.
Regarding `COc1cccc(NC(=O)CSc2nnc(-c3ccc(NC(C)=O)cc3)o2)c1`, the EC50 was > 64.6 µM and the IC50 was > 64.6 µM.
Take `O=C1NC2CSC(CCCCC(=O)ON3C(=O)CCC3=O)C2N1` (configuration not stated): the EC50 is > 741 µM and the half-maximal inhibitory concentration (IC50) is 123 µM.
On to `C[N+](C)(C)CC(=O)N/N=C(\C(=O)NC1=C(Cl)C(=O)c2ccccc2C1=O)C(C#N)c1nc(-c2ccc([N+](=O)[O-])cc2)cs1` (configuration not stated), for which the result was inactive.
With `COc1ccc2c(c1)CCCN2CCCCCCCCCCN(CCC(C)C)CCC(C)C`, the EC50 is > 77.6 µM and the IC50 stood at 9.55 µM.
The matching figures for `COc1cc([N+](=O)[O-])ccc1C(=O)Nc1c2ccccc2nc2ccccc12`: > 200 µM and 0.479 µM.
The matching figures for `COc1ccc2cc(C(=O)NCCc3ccccc3)ccc2c1OC`: > 200 µM and > 200 µM.
Turning to `CN(C)c1ncnc2c1ncn2C1OC(CO)C(O)C1O` (configuration not stated), the outcome was inactive.
For the compound `CN1CCN(CCCN2c3ccccc3Sc3ccc(C(F)(F)F)cc32)CC1`, the EC50 was > 200 µM; the IC50 is 9.55 µM and 4.37 µM.
Take `C[C@H]1CC[P+](Cc2ccccc2)(c2ccccc2)C1` (some centres not stated): the EC50 is > 708 µM and the half-inhibitory concentration (IC50) is 33.1 µM.
The matching figures for `O=C1NNC2CCCCC2O1` (configuration not stated): > 1150 µM and > 1150 µM.
On the same counts, the results for `COc1ccc(/C(C)=N/NC(=O)c2ccncc2)c(OC)c1` are > 417 µM and 363 µM.
The matching figures for `O=C1c2ccccc2C(=O)c2c1ccc1c2N=C(c2ccc(F)cc2)CC(c2ccc(Cl)c(Cl)c2)N1` (configuration not stated): > 14.1 µM and > 14.1 µM.
Consider `Nc1ccc(S(=O)(=O)Nc2nc3ccccc3nc2N2CCCCC2)cc1`, for which the EC50 is > 200 µM and the concentration for half-maximal inhibition (IC50) was 72.4 µM.
Consider `Cc1ccc(-c2nnc3s/c(=C\c4ccc(N(C)C)cc4)c(=O)n23)cc1`, for which the EC50 is > 27.5 µM and the IC50 was 16.2 µM.
On the same counts, the results for `O=c1ccn(/C=C\c2nc3ccccc3[nH]c2=O)c(=S)[nH]1` are > 200 µM and > 200 µM.
For `CCc1cc(Cc2cc(CC)c(NC(=O)C3=CC(=O)CC(c4ccc(OC)cc4)O3)c(CC)c2Cl)c(Cl)c(CC)c1NC(=O)C1=CC(=O)CC(c2ccc(OC)cc2)O1` (configuration not stated), the outcome was inactive.
On to `O=[N+]([O-])c1cccc([N+](=O)[O-])c1S(=O)(=O)c1ccccc1`, for which the EC50 is > 61.7 µM and the concentration for half-maximal inhibition (IC50) stood at 6.31 µM.
In the case of `COc1ccc2nc3cc(Cl)ccc3c(NCCCN(Cc3cc(OC)c(OC)c(OC)c3)Cc3cc(OC)c(OC)c(OC)c3)c2c1`, the outcome was inactive.
With `CNc1nc(N(C)C)nc(N(C)C)n1`, the EC50 is > 537 µM and the half-maximal inhibitory concentration (IC50) is 407 µM.
`CCOC(=O)C(C)C(CCC#N)(C(=O)OCC)C(=O)OCC` (configuration not stated): the EC50 was > 200 µM and the IC50 is > 200 µM.
Consider `CC(=O)OC1Sc2ccccc2C(=O)N2CCCC12` (configuration not stated), for which the EC50 was > 200 µM and the IC50 is > 200 µM.
Regarding `CC(/C=N/Nc1ccc([N+](=O)[O-])cn1)=N/Nc1ccc([N+](=O)[O-])cn1`, the EC50 is > 200 µM and the IC50 was > 200 µM.
`Cc1ccc(CC[P+](=O)CCc2ccc(C)nc2)cn1`: the EC50 is > 200 µM and the IC50 was > 200 µM.
Regarding `Cc1ccc(S(=O)(=O)OC(c2ccc(Cl)cc2Cl)C2OC(=O)c3ccccc32)cc1` (configuration not stated), the EC50 was > 40.7 µM and the IC50 is > 40.7 µM.
In the case of `COc1cc(OC)cc(Oc2nc3ccccc3nc2C(=O)O)c1`, the EC50 was > 200 µM and the IC50 is > 200 µM.
On to `Nc1nc2c(ccn2[C@H]2C=C[C@@H](CO)C2)c(=O)[nH]1`, for which the EC50 was > 275 µM and the 50% inhibitory concentration (IC50) was > 275 µM.
For `CN(C)c1ccc(/C=C(\C#N)c2ccc(F)cc2)cc1`, the EC50 was > 20 µM and the IC50 worked out at 1.07 µM.
For the compound `COC(=O)C1C(O)C(C)C(O)C(C)/C=C\C=C(C)C(=O)Nc2c(C)c(OC(C)=O)c3c(c2O)C(=O)C(C)=C2OCOC(=C23)C(C)=CC(C)(O)C(O)C(C)C1O` (configuration not stated), the EC50 was > 324 µM; the IC50 was 117 µM and 162 µM.
As for `Cc1ccccc1N=C(N)Nc1ccccc1C`, the EC50 was > 200 µM and the IC50 was > 200 µM.
Regarding `CN(C(=O)c1ccc(Cl)s1)C(=S)N(C)C(=O)c1ccc(Cl)s1`, the EC50 was > 120 µM and the IC50 was 115 µM.
For the compound `COc1ccc(-n2c(N)c(C#N)c(C#N)c2-c2cccc([N+](=O)[O-])c2)cc1`, the EC50 is > 200 µM and the IC50 was found to be 186 µM.
On the same counts, the results for `O=C1NN=C2CCCCCC12` (configuration not stated) are > 589 µM and > 589 µM.
On the same counts, the results for `CSC1=N/C(=C\c2cccs2)C(=O)N1CN1CCOCC1` are > 200 µM and 38 µM.
With `O=C1CCC2(c3ccccc3)Nc3cc(Cl)ccc3N12` (configuration not stated), the outcome was inactive.
As to `CCN(CC)C(=O)N1CN(c2ccccc2)C2(CCN(CCCC3(c4ccc(F)cc4)OCCO3)CC2)C1=O`, the EC50 is > 200 µM and the IC50 came to 27.5 µM.
As to `CC1=C2C3CCCC(C3=O)[C@H](C)C2CC1=O` (some centres not stated), the result was inactive.
For the compound `OC1(c2ccccc2)C2CCN(CC2)C1CN1CCOCC1` (configuration not stated), the EC50 is > 200 µM and the IC50 was > 200 µM.
For the compound `NC1(C(=O)N2CCCC2C(=O)O)CCCC1` (configuration not stated) (HELM PEPTIDE1{[NC1(C(=O)[*:2])CCCC1].[O=C(O)C1CCCN1[*:1]]}$$$$V2.0), the EC50 was > 200 µM and the 50% inhibitory concentration (IC50) is > 200 µM.
Turning to `COc1ccccc1NC(=O)/C(=C\N1C(=O)CC(=O)NC1=S)C(C)=O`, the EC50 was > 200 µM and the 50% inhibitory concentration (IC50) is > 200 µM.
`C=C(C)[C@@]1(O)CCCC[C@@H]1CC(Sc1ccccc1)Sc1ccccc1`: the EC50 was > 200 µM and the half-inhibitory concentration (IC50) is 19.1 µM.
As for `NC1=NS(=O)(=O)Nc2nonc21`, the EC50 is > 1320 µM and the half-inhibitory concentration (IC50) was > 1320 µM.
Turning to `Nc1ncnc2sc(Nc3ccccc3)nc12`, the 50% effective concentration (EC50) is > 53.7 µM and the IC50 is 33.1 µM.
On the same counts, the results for `CCOP(=O)(Cc1c(Cl)c(Cl)c(CP(=O)(OCC)OCC)c(Cl)c1Cl)OCC` are > 200 µM and 26.9 µM.
The matching figures for `CCC(NC(C)c1ccccc1)C(O)c1ccc(OCc2ccccc2)c(OCc2ccccc2)c1` (configuration not stated): > 200 µM and 10.7 µM.
Consider `COc1ccc(S(=O)(=O)N[C@@H](C(=O)O)c2ccccc2)cc1`, for which the outcome was inactive.
Same read-out and setting: for `O=C(Nc1ccccc1)Oc1ccccc1C1CCCCC1` the value was “inactive”.
As for `O=C1c2ccccc2C2CC1c1ccccc12` (configuration not stated), the EC50 is > 214 µM and the half-inhibitory concentration (IC50) was > 200 µM.
The matching figures for `C=C1c2nc3ccccc3n2C=C(c2ccccc2)N1c1ccc([N+](=O)[O-])cc1`: > 200 µM and 42.7 µM.
Take `Cn1c(=O)c2ccccc2[n+]2c(-c3cccc([N+](=O)[O-])c3)csc12`: the EC50 is > 200 µM and the IC50 stood at 148 µM.
On the same counts, the results for `COc1nc(N)nc2c1CSc1ccccc1-2` are > 77.6 µM and > 77.6 µM.
On the same counts, the results for `CC(C)[C@H]1CO[C@@H]2CCC(=O)N12` are > 1050 µM and > 1050 µM.
As to `CC1(C)O[C@@H](C[C@]2(C#N)C[C@H](CCl)OC(C)(C)O2)C[C@@H](C#N)O1`, the outcome was inactive and the half-maximal inhibitory concentration (IC50) is > 200 µM.
With `CCOC(=O)C(NC(=O)OCc1ccccc1)C(=O)O` (configuration not stated), the EC50 is > 200 µM and the half-inhibitory concentration (IC50) is > 200 µM.
As to `S=c1nnn(C2CCCN2)[nH]1` (configuration not stated), the EC50 was > 200 µM and the IC50 was > 200 µM.
Consider `O=c1cc(N=P(c2ccccc2)(c2ccccc2)c2ccccc2)n(-c2ccccc2)c(=O)n1-c1ccccc1`, for which the result was inactive.
As for `CC(C)c1cc(C(C)C)c(B(c2ccccc2)c2ccccc2)c(C(C)C)c1B(c1ccccc1)c1ccccc1`, the EC50 was > 100 µM and the IC50 was > 100 µM.
With `COc1ccccc1C(=O)N(C)c1ccc(Cl)c(C(=O)OC(C)C)c1`, the outcome was inactive.
The same measure, in the same setting: the same measure for `CCCCCCCCNC(=O)SCCCC`: “inactive”.
Take `O=C1NC2CC=CCC12` (configuration not stated): the EC50 was > 2040 µM and the half-maximal inhibitory concentration (IC50) is > 2040 µM.
Regarding `COc1ccc2c(c1)C(=O)CC(c1ccccc1)O2` (configuration not stated), the EC50 was > 200 µM and the half-inhibitory concentration (IC50) is > 200 µM.
In the case of `CC(=O)Nc1ccc(S(=O)(=O)N/N=C(\C)CN2C(=O)c3ccccc3C2=O)cc1`, the EC50 was > 229 µM and the half-maximal inhibitory concentration (IC50) was > 229 µM.
Consider `Cc1ccc(Nc2nc(NS(=O)(=O)c3cc(C)c(Cl)cc3S)n(C)n2)cc1`, for which the EC50 is > 200 µM and the concentration for half-maximal inhibition (IC50) amounted to 105 µM.
For `Cc1nc2c(nc1C)C(=O)C(Br)=C(N)C2=O`, the result was inactive.
The same measure, in the same setting: the same measure for `O=C1C(c2ccccc2)=C(c2ccccc2)[C@H](c2ccccc2)[C@]1(Cc1nnn(-c2ccc([N+](=O)[O-])cc2)c1N1CCOCC1)c1ccccc1`: “inactive”.
In the case of `CCOC(=O)/C(O)=C(/C=N/C(=S)Nc1c(CC)cccc1CC)C(=O)OCC`, the EC50 is > 200 µM and the IC50 amounted to 110 µM.
Take `COc1cc(C2CC(=O)c3ccccc3O2)ccc1O` (configuration not stated): the EC50 was > 200 µM and the half-inhibitory concentration (IC50) stood at 11.7 µM.
The matching figures for `O=c1[nH]cnc(O)c1N=Nc1ccc(/C=C/c2ccc(N=Nc3c(O)nc[nH]c3=O)cc2S(=O)(=O)O)c(S(=O)(=O)O)c1`: > 63.1 µM and > 63.1 µM.
In the case of `COC(CNC(=O)C(C)NC(=O)C(C)NC(=O)c1ccccc1)OC` (configuration not stated), the result was inactive.
`C=CN(C=C)C(=O)Cn1cc(-c2ccccc2)nn1`: the EC50 is > 200 µM and the concentration for half-maximal inhibition (IC50) was > 200 µM.
